This experiment addresses T1, human cGAS (residues 161-522) (Homo sapiens, UniProt Q8N884).
T1 construct: human cGAS (residues 161-522); made in house
Kind of experiment: cGAS Activity Assay—Malachite Green. The note with it: recombinant purified human cGAS 25 nM; 80 μM ATP, 80 μM GTP, 100 nM ISD; 4 hour at RT; phosphate detection by Malachite Green. In kind it is biochemical. How it is done:
Compounds were tested for cGAS inhibition in a coupled enzymatic assay based on Phosphate detection by Malachite Green. Final assay conditions were 20 mM TRIS pH 7.5 (Applichem), 5 mM MgCl2 (Sigma) and 0.01% BSA (Sigma) supplemented with 80 μM ATP (Sigma), 80 μM GTP (Sigma) and 100 nM Interferon Stimulating DNA (ISD) (Microsynth). Recombinantly expressed purified human cGAS (residues 161-522) was used at 25 nM.
All compounds were prepared as 10 mM stock solutions in DMSO and a 16 pt dilution series in DMSO with a dilution factor of 2.5 was prepared. 1 μL of DMSO dilution series was transferred to 32.3 μL reaction buffer, mixed by pipetting up/down, spun for 1 minute at 3000 rpm and was visually inspected for precipitation. 5 μL of 3-fold enzyme stock solution were transferred to an empty 384-well Black/Clear Flat Bottom Polystyrene NBS (Corning) rows 3-24. Rows 1-2 were filled with assay buffer. Plates were spun 10 seconds at 1000 rpm (164×g). 5 μL of compound intermediate dilution was added and mixed by pipetting up/down to rows 3-24. Rows 1-2 were filled with 3.1% DMSO assay buffer. Plates were spun 10 seconds at 1000 rpm (164×g). 5 μL 3-fold Nucleotide/DNA mix was added to all wells to start the reaction. Plates were spun 10 seconds at 1000 rpm (164×g) and incubated for 4 hour at room temperature (RT) in the dark. 5 μL 4 U/ml PPase (Sigma) were added to all wells. Plates spun 10 seconds at 1000 rpm (164×g). 10 μL BioMol green Solution (Enzo Life Sciences) was added to all wells. Plates spun 10 seconds at 1000 rpm (164×g) and incubated 30 minutes at RT in the dark. Absorbance data was collected 620 nm on an EnVision Multilable Reader (Perkin Elmer) and the following measurement settings were used: excitation filter photometric was 620 nm; excitation from the top; measurement height was 1 mm; number of flashes was 30; number of flashes integrated was 1.
All plates are checked for abnormalities and outliers in the Blank Control (no protein, row 1) and the Neutral Control (no compound, row 2) are excluded using the 3*SD rule. Data was normalized to 0 and 100% by Blank and Neutral Control and each curve was fitted and judged using the 4 parameter logistic equation to determine the IC50 for cGAS inhibition.
Table 13 provides IC50 values (μM) for cGAS inhibition obtained for particular examples of the present invention as measured by the above-described assay.
T1 sequence (Q8N884 161-522): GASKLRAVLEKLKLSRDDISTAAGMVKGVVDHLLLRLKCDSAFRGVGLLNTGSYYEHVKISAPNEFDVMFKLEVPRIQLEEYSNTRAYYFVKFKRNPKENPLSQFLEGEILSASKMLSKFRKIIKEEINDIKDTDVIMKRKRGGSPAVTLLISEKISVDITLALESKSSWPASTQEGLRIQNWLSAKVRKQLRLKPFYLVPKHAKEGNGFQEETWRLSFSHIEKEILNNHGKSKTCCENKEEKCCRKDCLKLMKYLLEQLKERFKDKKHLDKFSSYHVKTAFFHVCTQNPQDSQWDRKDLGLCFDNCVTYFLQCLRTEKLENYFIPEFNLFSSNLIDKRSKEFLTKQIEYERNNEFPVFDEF
`Cc1oncc1/C(O)=C(\C#N)C(=O)Nc1ccc(S(=O)(=O)N(C)C)cc1` [Example 1, (Z)-2-cyano-N-(4-(N,N-dimethylsulfamoyl)phenyl)-3-hydroxy-3-(5-methylisoxazol-4-yl)acrylamide]: the IC50 (commonly the concentration needed to halve the response being measured) was found to be 170 nM.
With `CC(=O)c1ccc(NC(=O)/C(C#N)=C(\O)c2cnoc2C)cc1` [Example 2, (Z)-N-(4-acetylphenyl)-2-cyano-3-hydroxy-3-(5-methylisoxazol-4-yl)prop-2-enamide] the figure was 510 nM.
The same measure for `Cc1oncc1/C(O)=C(\C#N)C(=O)Nc1ccccc1` [Example 3, (Z)-2-cyano-3-hydroxy-3-(5-methylisoxazol-4-yl)-N-phenylacrylamide]: 1070 nM; for `Cc1oncc1/C(O)=C(\C#N)C(=O)Nc1ccc(C(F)(F)F)cc1` [Example 4, (Z)-2-cyano-3-hydroxy-3-(5-methylisoxazol-4-yl)-N-(4-(trifluoromethyl)phenyl) acrylamide]: 950 nM.
The same measure for `Cc1oncc1/C(O)=C(\C#N)C(=O)Nc1cccc(C(F)(F)F)c1` [Example 5, (Z)-2-cyano-3-hydroxy-3-(5-methylisoxazol-4-yl)-N-[3-(trifluoromethyl)phenyl] prop-2-enamide]: 1500 nM; for `Cc1oncc1/C(O)=C(\C#N)C(=O)Nc1cc(C(F)(F)F)cc(C(F)(F)F)c1` [Example 6, (Z)-N-(3,5-bis(trifluoromethyl)phenyl)-2-cyano-3-hydroxy-3-(5-methylisoxazol-4-yl)acrylamide]: 6980 nM; for `Cc1oncc1/C(O)=C(\C#N)C(=O)Nc1ccc(C#N)cc1` [Example 7, (Z)-2-cyano-N-(4-cyanophenyl)-3-hydroxy-3-(5-methylisoxazol-4-yl)acrylamide]: 790 nM.
On to `COC(=O)c1ccc(NC(=O)/C(C#N)=C(\O)c2cnoc2C)cc1` [Example 8, methyl (Z)-4-(2-cyano-3-hydroxy-3-(5-methylisoxazol-4-yl)acrylamido)benzoate], for which the IC50 is 340 nM.
The same measure for `Cc1oncc1/C(O)=C(\C#N)C(=O)Nc1ccccc1C(F)(F)F` [Example 9, (Z)-2-cyano-3-hydroxy-3-(5-methylisoxazol-4-yl)-N-(2-(trifluoromethyl)phenyl) acrylamide]: 7240 nM; for `Cc1oncc1/C(O)=C(\C#N)C(=O)Nc1ccc(F)cc1` [Example 10, (Z)-2-cyano-N-(4-fluorophenyl)-3-hydroxy-3-(5-methylisoxazol-4-yl)acrylamide]: 1480 nM; for `Cc1oncc1/C(O)=C(\C#N)C(=O)Nc1ccc(OC(F)(F)F)cc1` [Example 11, (Z)-2-cyano-3-hydroxy-3-(5-methylisoxazol-4-yl)-N-(4-(trifluoromethoxy)phenyl) acrylamide]: 1290 nM.
The same measure for `Cc1oncc1/C(O)=C(\C#N)C(=O)Nc1ccc(Cl)c(Cl)c1` [Example 12, (Z)-2-cyano-N-(3,4-dichlorophenyl)-3-hydroxy-3-(5-methylisoxazol-4-yl)acrylamide]: 2600 nM; for `Cc1oncc1/C(O)=C(\C#N)C(=O)Nc1ccc(Sc2ccc(Cl)cc2)cc1` [Example 13, (Z)-N-(4-((4-chlorophenyl)thio)phenyl)-2-cyano-3-hydroxy-3-(5-methylisoxazol-4-yl)acrylamide]: 3470 nM; for `CSc1ccc(NC(=O)/C(C#N)=C(\O)c2cnoc2C)cc1` [Example 14, (Z)-2-cyano-3-hydroxy-3-(5-methylisoxazol-4-yl)-N-(4-(methylthio)phenyl) acrylamide]: 670 nM.
On to `Cc1oncc1/C(O)=C(\C#N)C(=O)Nc1ccc(Cl)c(C(F)(F)F)c1` [Example 15, (Z)-N-(4-chloro-3-(trifluoromethyl)phenyl)-2-cyano-3-hydroxy-3-(5-methylisoxazol-4-yl)acrylamide], for which the IC50 was 3560 nM.
With `Cc1oncc1/C(O)=C(\C#N)C(=O)Nc1ccc(S(=O)(=O)c2ccc(Cl)cc2)cc1` [Example 16, (Z)-N-(4-((4-chlorophenyl)sulfonyl)phenyl)-2-cyano-3-hydroxy-3-(5-methylisoxazol-4-yl)acrylamide], the IC50 stood at 270 nM.
With `COc1ccc(NC(=O)/C(C#N)=C(\O)c2cnoc2C)cc1` [Example 17, (Z)-2-cyano-3-hydroxy-N-(4-methoxyphenyl)-3-(5-methylisoxazol-4-yl)acrylamide] the figure was 640 nM.
With `Cc1oncc1/C(O)=C(\C#N)C(=O)Nc1ccc(Oc2cccc(C(F)(F)F)c2)cc1` [Example 18, (Z)-2-cyano-3-hydroxy-3-(5-methylisoxazol-4-yl)-N-(4-(3-(trifluoromethyl)phenoxy)phenyl)acrylamide] the figure was 3710 nM.
Regarding `Cc1cc(NC(=O)/C(C#N)=C(\O)c2cnoc2C)ccc1Oc1ccc(C(F)(F)F)cc1` [Example 19, (Z)-2-cyano-3-hydroxy-N-(3-methyl-4-(4-(trifluoromethyl)phenoxy)phenyl)-3-(5-methylisoxazol-4-yl)acrylamide], the concentration for half-maximal inhibition (IC50) came out at 7420 nM.
In the case of `Cc1oncc1/C(O)=C(\C#N)C(=O)Nc1ccc(Cl)cc1` [Example 20, (Z)-N-(4-chlorophenyl)-2-cyano-3-hydroxy-3-(5-methylisoxazol-4-yl)acrylamide], the half-maximal inhibitory concentration (IC50) is 1120 nM.
The same measure for `Cc1oncc1/C(O)=C(\C#N)C(=O)Nc1ccc(-n2cccc2)cc1` [Example 21, (Z)-N-(4-(1H-pyrrol-1-yl)phenyl)-2-cyano-3-hydroxy-3-(5-methylisoxazol-4-yl)acrylamide]: 1440 nM; for `Cc1cc(C#N)ccc1NC(=O)/C(C#N)=C(\O)c1cnoc1C` [Example 22, (Z)-2-cyano-N-(4-cyano-2-methylphenyl)-3-hydroxy-3-(5-methylisoxazol-4-yl)acrylamide]: 690 nM; for `Cc1cc(NC(=O)/C(C#N)=C(\O)c2cnoc2C)ccc1Br` [Example 23, (Z)-N-(4-bromo-3-methylphenyl)-2-cyano-3-hydroxy-3-(5-methylisoxazol-4-yl)acrylamide]: 1810 nM.
On to `Cc1oncc1/C(O)=C(\C#N)C(=O)Nc1ccc(Oc2ccc(Cl)cc2)c(Cl)c1` [Example 24, (Z)-N-(3-chloro-4-(4-chlorophenoxy)phenyl)-2-cyano-2-hydroxy-3-(5-methylisoxazol-4-yl)acrylamide], for which the IC50 was determined as 4370 nM.
The same measure for `COC(=O)c1cccc(NC(=O)/C(C#N)=C(\O)c2cnoc2C)c1` [Example 25, methyl 3-[[(Z)-2-cyano-3-hydroxy-3-(5-methylisoxazol-4-yl)prop-2-enoyl]amino]benzoate]: 1520 nM; for `Cc1oncc1/C(O)=C(\C#N)C(=O)Nc1cccc(S(C)(=O)=O)c1` [Example 26, (Z)-2-cyano-3-hydroxy-3-(5-methylisoxazol-4-yl)-N-(3-(methylsulfonyl)phenyl) acrylamide]: 1510 nM.
The same measure for `Cc1oncc1/C(O)=C(\C#N)C(=O)Nc1ccc(S(=O)(=O)N2CCCC2)cc1` [Example 27, (Z)-2-cyano-3-hydroxy-3-(5-methylisoxazol-4-yl)-N-(4-(pyrrolidin-1-ylsulfonyl)phenyl) acrylamide]: 150 nM.
For `CCOc1ccc(NC(=O)/C(C#N)=C(\O)c2cnoc2C)cc1` [Example 28, (Z)-2-cyano-N-(4-ethoxyphenyl)-3-hydroxy-3-(5-methylisoxazol-4-yl)prop-2-enamide], the 50% inhibitory concentration (IC50) came to 750 nM.
In the case of `COCCNS(=O)(=O)c1ccc(NC(=O)/C(C#N)=C(\O)c2cnoc2C)cc1` [Example 29, (Z)-2-cyano-3-hydroxy-N-(4-(N-(2-methoxyethyl)sulfamoyl)phenyl)-3-(5-methylisoxazol-4-yl)acrylamide], the IC50 was determined as 70 nM.
With `Cc1oncc1/C(O)=C(\C#N)C(=O)Nc1ccc(S(=O)(=O)c2ccccc2)cc1` [Example 30, (Z)-2-cyano-3-hydroxy-3-(5-methylisoxazol-4-yl)-N-(4-(phenylsulfonyl)phenyl) acrylamide] the figure was 160 nM; with `COc1ccc(NC(=O)/C(C#N)=C(\O)c2cnoc2C)cc1C` [Example 31, (Z)-2-cyano-3-hydroxy-N-(4-methoxy-3-methyl-phenyl)-3-(5-methylisoxazol-4-yl)prop-2-enamide], 1300 nM; with `COC(=O)Cc1ccc(NC(=O)/C(C#N)=C(\O)c2cnoc2C)cc1` [Example 32, methyl 2-[4-[[(Z)-2-cyano-3-hydroxy-3-(5-methylisoxazol-4-yl)prop-2-enoyl]amino]phenyl] acetate], 530 nM.
